Data taken from patent publication US11725036B2, “Modified lipidated relaxin B chain peptides and their therapeutic use” (Sanofi, priority 2018, dated 2023).
Starred links: 1 amine or outer side, 2 acyl side, 3 side chain; linkers in the order of their positions; H or OH if unused. Non-standard residues stand in square brackets, D forms with d. Residues, ends and D or L forms follow the SMILES beside them. Groups on a side chain read outwards from the residue. *: point of attachment. X12 = CCCCCCCCCCCCCCCCCC(=O)N[C@@H](CCC(=O)N[C@@H](CCC(=O)N[C@@H](CCC(=O)N[C@@H](CCC(=O)NCCCOCCOCCOCCCNC(=O)CCC(=O)NCCCOCCOCCOCCCNC(=O)CCC(=O)NCCCOCCOCCOCCCNC(=O)CCC(=O)NCCCOCCOCCOCCCN*)C(=O)O)C(=O)O)C(=O)O)C(=O)O; X11 = CCCCCCCCCCCCCCCCCC(=O)N[C@@H](CCC(=O)N[C@@H](CCC(=O)N[C@@H](CCC(=O)N[C@@H](CCC(=O)NCCCOCCOCCOCCCNC(=O)CCC(=O)NCCCOCCOCCOCCCNC(=O)CCC(=O)NCCCOCCOCCOCCCN*)C(=O)O)C(=O)O)C(=O)O)C(=O)O; X10 = CCCCCCCCCCCCCC(=O)N[C@@H](CCC(=O)N[C@@H](CCC(=O)N[C@@H](CCC(=O)N[C@@H](CCC(=O)NCCCOCCOCCOCCCNC(=O)CCC(=O)NCCCOCCOCCOCCCNC(=O)CCC(=O)NCCCOCCOCCOCCCN*)C(=O)O)C(=O)O)C(=O)O)C(=O)O; X1 = CCCCCCCCCCCCCCCC(=O)N[C@@H](CCC(=O)N[C@@H](CCC(=O)N[C@@H](CCC(=O)NCCCOCCOCCOCCCNC(=O)CCC(=O)NCCCOCCOCCOCCCNC(=O)CCC(=O)NCCCOCCOCCOCCCN*)C(=O)O)C(=O)O)C(=O)O; Phe(4-F) = N[C@@H](Cc1ccc(F)cc1)C(=O)O; Suc = O=C(CCC(=O)[*:2])[*:1]; αMeK = C[C@](N)(CCCCN)C(=O)O; Aib = CC(C)(N)C(=O)O

Target: T1, RXFP1 (Homo sapiens, UniProt Q9HBX9)
T1 construct: OVCAR5 cells expressing endogenous RXFP1; endogenous in cells; host or cells: OVCAR5
T1 sequence (Q9HBX9 1-757): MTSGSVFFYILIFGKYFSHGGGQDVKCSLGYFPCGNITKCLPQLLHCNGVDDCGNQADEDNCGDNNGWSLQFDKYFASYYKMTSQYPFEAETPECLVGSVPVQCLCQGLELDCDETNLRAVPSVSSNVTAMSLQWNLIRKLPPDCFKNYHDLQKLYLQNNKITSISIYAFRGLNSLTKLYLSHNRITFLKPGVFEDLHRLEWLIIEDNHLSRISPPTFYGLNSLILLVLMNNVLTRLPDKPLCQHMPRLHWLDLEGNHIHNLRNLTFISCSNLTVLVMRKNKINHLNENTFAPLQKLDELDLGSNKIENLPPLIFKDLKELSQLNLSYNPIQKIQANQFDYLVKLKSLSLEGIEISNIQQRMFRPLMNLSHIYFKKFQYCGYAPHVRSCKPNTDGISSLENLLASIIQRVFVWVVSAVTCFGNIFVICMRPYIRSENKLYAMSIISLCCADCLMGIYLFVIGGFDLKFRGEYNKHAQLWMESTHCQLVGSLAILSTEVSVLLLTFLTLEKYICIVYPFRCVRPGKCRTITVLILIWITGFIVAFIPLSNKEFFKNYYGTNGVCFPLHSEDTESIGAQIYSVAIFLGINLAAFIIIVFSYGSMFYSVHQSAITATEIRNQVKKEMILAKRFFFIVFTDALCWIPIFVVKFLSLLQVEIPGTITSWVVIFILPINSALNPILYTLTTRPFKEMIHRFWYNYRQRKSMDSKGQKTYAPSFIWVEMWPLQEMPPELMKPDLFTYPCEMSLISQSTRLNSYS
Experiment: OVCAR5 cAMP assay (HTRF)
Type: cell-based
Details: for Emax: OVCAR 5 cells, maximal cAMP relative to H2-relaxin; for EC50: OVCAR 5 cells expressing endogenous RXFP1, cAMP readout
Summary of the method: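 Endogenous RXFP1 in OVCAR5 cells, pretreated 40 min at 37° C with 1 mM IBMX, then exposed to increasing peptide concentrations in serum-free medium for 30 min at 37° C. cAMP read by HTRF; EC50 by variable-slope sigmoidal fit, Emax as % of H2-relaxin maximal cAMP in same run.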

Compound: CCCCCCCCCCCCCCCCCC(=O)N[C@@H](CCC(=O)N[C@@H](CCC(=O)N[C@@H](CCC(=O)N[C@@H](CCC(=O)NCCCOCCOCCOCCCNC(=O)CCC(=O)NCCCOCCOCCOCCCNC(=O)CCC(=O)NCCCOCCOCCOCCCNC(=O)CCC(=O)NCCCOCCOCCOCCCNC(=O)CCC(=O)NCCCC[C@H](NC(=O)CNC(=O)[C@H](CCC(=O)O)NC(=O)C(C)(C)NC(=O)C(C)(C)NC(=O)[C@@H](NC(=O)[C@H](CCCCNC(C)=O)NC(=O)[C@H](C)NC(=O)[C@H](CCCNC(=N)N)NC(=O)[C@@H](NC(=O)[C@H](CCCCN)NC(=O)[C@H](CCC(=O)O)NC(=O)[C@H](CCCNC(=N)N)NC(=O)CNC(=O)[C@H](CCC(=O)O)NC(=O)[C@H](CC(C)C)NC(C)=O)C(C)C)[C@@H](C)CC)C(=O)N[C@@H](CO)C(=O)N[C@H](C(=O)N[C@@H](Cc1c[nH]c2ccccc12)C(=O)N[C@@H](CO)C(=O)NC(C)(C)C(=O)N[C@@H](CCCNC(=N)N)C(=O)N[C@@H](CCCCN)C(=O)N[C@@H](CCCCNC(C)=O)C(N)=O)[C@@H](C)O)C(=O)O)C(=O)O)C(=O)O)C(=O)O [compound 59] (Ac-LEGREKVRAK(Ac)I[Aib][Aib]EGK([Suc-X12])STWS[Aib]RKK(Ac)-NH2)
- Emax: 99%

Compound: CCCCCCCCCCCCCCCC(=O)N[C@@H](CCC(=O)N[C@@H](CCC(=O)N[C@@H](CCC(=O)NCCCOCCOCCOCCCNC(=O)CCC(=O)NCCCOCCOCCOCCCNC(=O)CCC(=O)NCCCOCCOCCOCCCNC(=O)CCC(=O)NCCCC[C@H](NC(=O)CNC(=O)[C@H](CCC(=O)O)NC(=O)C(C)(C)NC(=O)C(C)(C)NC(=O)[C@@H](NC(=O)[C@H](CCCCNC(C)=O)NC(=O)[C@H](C)NC(=O)[C@H](CCCNC(=N)N)NC(=O)[C@@H](NC(=O)[C@H](CCCCN)NC(=O)[C@H](CCC(=O)O)NC(=O)[C@H](CCCNC(=N)N)NC(=O)CNC(=O)[C@H](CCC(=O)O)NC(=O)[C@H](CC(C)C)NC(C)=O)C(C)C)[C@@H](C)CC)C(=O)N[C@@H](CO)C(=O)N[C@@H](CCCCN)C(=O)N[C@@H](Cc1c[nH]c2ccccc12)C(=O)N[C@@H](CO)C(=O)NC(C)(C)C(=O)N[C@@H](CCCNC(=N)N)C(=O)N[C@@H](C)C(=O)N[C@@H](CCCCN)C(N)=O)C(=O)O)C(=O)O)C(=O)O [compound 73] (Ac-LEGREKVRAK(Ac)I[Aib][Aib]EGK([Suc-X1])SKWS[Aib]RAK-NH2)
- EC50: 0.2 nM
- Emax: 95%

Compound: CCCCCCCCCCCCCCCCCC(=O)N[C@@H](CCC(=O)N[C@@H](CCC(=O)N[C@@H](CCC(=O)N[C@@H](CCC(=O)NCCCOCCOCCOCCCNC(=O)CCC(=O)NCCCOCCOCCOCCCNC(=O)CCC(=O)NCCCOCCOCCOCCCNC(=O)CCC(=O)NCCCC[C@H](NC(=O)CNC(=O)[C@H](CCC(=O)O)NC(=O)C(C)(C)NC(=O)C(C)(C)NC(=O)[C@@H](NC(=O)[C@H](CCCCNC(C)=O)NC(=O)[C@H](C)NC(=O)[C@H](CCCNC(=N)N)NC(=O)[C@@H](NC(=O)[C@H](CCCCN)NC(=O)[C@H](CCC(=O)O)NC(=O)[C@H](CCCNC(=N)N)NC(=O)CNC(=O)[C@H](CCC(=O)O)NC(=O)[C@H](CC(C)C)NC(C)=O)C(C)C)[C@@H](C)CC)C(=O)N[C@@H](CO)C(=O)N[C@H](C(=O)N[C@@H](Cc1c[nH]c2ccccc12)C(=O)N[C@@H](CO)C(=O)NC(C)(C)C(=O)N[C@@H](CCCNC(=N)N)C(=O)N[C@@H](CCCCN)C(=O)N[C@@H](CCCCNC(C)=O)C(N)=O)[C@@H](C)O)C(=O)O)C(=O)O)C(=O)O)C(=O)O [compound 51] (Ac-LEGREKVRAK(Ac)I[Aib][Aib]EGK([Suc-X11])STWS[Aib]RKK(Ac)-NH2)
- EC50: 0.1 nM
- Emax: 98%

Compound: CCCCCCCCCCCCCCCC(=O)N[C@@H](CCC(=O)N[C@@H](CCC(=O)N[C@@H](CCC(=O)NCCCOCCOCCOCCCNC(=O)CCC(=O)NCCCOCCOCCOCCCNC(=O)CCC(=O)NCCCOCCOCCOCCCNC(=O)CCC(=O)NCCCC[C@H](NC(=O)CNC(=O)[C@H](CCC(=O)O)NC(=O)C(C)(C)NC(=O)C(C)(C)NC(=O)[C@@H](NC(=O)[C@H](CCCCNC(C)=O)NC(=O)[C@H](C)NC(=O)[C@H](CCCNC(=N)N)NC(=O)[C@@H](NC(=O)[C@H](CCCNC(=N)N)NC(=O)[C@H](CCC(=O)O)NC(=O)[C@H](CCCNC(=N)N)NC(=O)CNC(=O)[C@H](CCC(=O)O)NC(=O)[C@H](CC(C)C)NC(C)=O)C(C)C)[C@@H](C)CC)C(=O)N[C@@H](CO)C(=O)N[C@H](C(=O)N[C@@H](Cc1ccc(F)cc1)C(=O)N[C@@H](CO)C(=O)NC(C)(C)C(=O)N[C@@H](CCCNC(=N)N)C(=O)N[C@@H](CCCNC(=N)N)C(=O)N[C@@H](CCCCNC(C)=O)C(N)=O)[C@@H](C)O)C(=O)O)C(=O)O)C(=O)O [compound 91] (Ac-LEGRERVRAK(Ac)I[Aib][Aib]EGK([Suc-X1])ST[Phe(4-F)]S[Aib]RRK(Ac)-NH2)
- EC50: 0.09 nM
- Emax: 97%

Compound: CCCCCCCCCCCCCCCC(=O)N[C@@H](CCC(=O)N[C@@H](CCC(=O)N[C@@H](CCC(=O)NCCCOCCOCCOCCCNC(=O)CCC(=O)NCCCOCCOCCOCCCNC(=O)CCC(=O)NCCCOCCOCCOCCCNC(=O)CCC(=O)NCCCC[C@H](NC(=O)CNC(=O)[C@H](CCC(=O)O)NC(=O)C(C)(C)NC(=O)C(C)(C)NC(=O)[C@@H](NC(=O)[C@H](CCC(N)=O)NC(=O)[C@H](CCCCNC(C)=O)NC(=O)[C@H](CCCNC(=N)N)NC(=O)[C@@H](NC(=O)[C@H](CCCCN)NC(=O)[C@H](CCC(=O)O)NC(=O)[C@H](CCCNC(=N)N)NC(=O)CNC(=O)[C@H](CCC(=O)O)NC(=O)[C@H](CC(C)C)NC(C)=O)C(C)C)[C@@H](C)CC)C(=O)N[C@@H](CO)C(=O)N[C@H](C(=O)N[C@@H](Cc1c[nH]c2ccccc12)C(=O)N[C@@H](CO)C(=O)NC(C)(C)C(=O)N[C@@H](CCCNC(=N)N)C(=O)N[C@@H](CCCCN)C(=O)N[C@@H](CCCCNC(C)=O)C(N)=O)[C@@H](C)O)C(=O)O)C(=O)O)C(=O)O [compound 65] (Ac-LEGREKVRK(Ac)QI[Aib][Aib]EGK([Suc-X1])STWS[Aib]RKK(Ac)-NH2)
- EC50: 1.19 nM
- Emax: 95%

Compound: CCCCCCCCCCCCCC(=O)N[C@@H](CCC(=O)N[C@@H](CCC(=O)N[C@@H](CCC(=O)N[C@@H](CCC(=O)NCCCOCCOCCOCCCNC(=O)CCC(=O)NCCCOCCOCCOCCCNC(=O)CCC(=O)NCCCOCCOCCOCCCNC(=O)CCC(=O)NCCCC[C@H](NC(=O)CNC(=O)[C@H](CCC(=O)O)NC(=O)C(C)(C)NC(=O)C(C)(C)NC(=O)[C@@H](NC(=O)[C@H](CCCCNC(C)=O)NC(=O)[C@H](C)NC(=O)[C@H](CCCNC(=N)N)NC(=O)[C@@H](NC(=O)[C@H](CCCCN)NC(=O)[C@H](CCC(=O)O)NC(=O)[C@H](CCCNC(=N)N)NC(=O)CNC(=O)[C@H](CCC(=O)O)NC(=O)[C@H](CC(C)C)NC(C)=O)C(C)C)[C@@H](C)CC)C(=O)N[C@@H](CO)C(=O)N[C@H](C(=O)N[C@@H](Cc1ccccc1)C(=O)N[C@@H](CO)C(=O)N[C@@](C)(CCCCN)C(=O)N[C@@H](CCCNC(=N)N)C(=O)N[C@@H](C)C(=O)N[C@@H](CCCCN)C(N)=O)[C@@H](C)O)C(=O)O)C(=O)O)C(=O)O)C(=O)O [compound 97] (Ac-LEGREKVRAK(Ac)I[Aib][Aib]EGK([Suc-X10])STFS[αMeK]RAK-NH2)
- EC50: 0.29 nM
- Emax: 98%

Compound: CCCCCCCCCCCCCCCC(=O)N[C@@H](CCC(=O)N[C@@H](CCC(=O)N[C@@H](CCC(=O)NCCCOCCOCCOCCCNC(=O)CCC(=O)NCCCOCCOCCOCCCNC(=O)CCC(=O)NCCCOCCOCCOCCCNC(=O)CCC(=O)NCCCC[C@H](NC(=O)CNC(=O)[C@H](CCC(=O)O)NC(=O)C(C)(C)NC(=O)C(C)(C)NC(=O)[C@@H](NC(=O)[C@H](CCCCNC(C)=O)NC(=O)[C@H](C)NC(=O)[C@H](CCCNC(=N)N)NC(=O)[C@@H](NC(=O)[C@H](CCCCN)NC(=O)[C@H](CCC(=O)O)NC(=O)[C@H](CCCNC(=N)N)NC(=O)CNC(=O)[C@H](CCC(=O)O)NC(=O)[C@H](CC(C)C)NC(C)=O)C(C)C)[C@@H](C)CC)C(=O)N[C@@H](CO)C(=O)N[C@H](C(=O)N[C@@H](Cc1c[nH]c2ccccc12)C(=O)N[C@@H](CO)C(=O)NC(C)(C)C(=O)N[C@@H](CCCNC(=N)N)C(=O)N[C@@H](CCCCNC(C)=O)C(=O)N[C@@H](CCCCN)C(N)=O)[C@@H](C)O)C(=O)O)C(=O)O)C(=O)O [compound 68] (Ac-LEGREKVRAK(Ac)I[Aib][Aib]EGK([Suc-X1])STWS[Aib]RK(Ac)K-NH2)
- EC50: 0.88 nM
- Emax: 98%
